pKi: −log10 of the molar value.
Assays:
[1] = molecular target: T1, muscle-like nicotinic receptors (TE671/RD) (Homo sapiens, UniProt P02708+P07510+P11230+Q07001); experiment: cell-based; conditions: for Emax: TE671/RD, read-out: Muscle Effect (% nicotine)
T1 construct: these cells express muscle-like nicotinic receptors; endogenous in cells; host or cells: TE671/RD (human embryonal rhabdomyosarcoma)

nicotinic receptors = experiment: Determination of binding of compounds to relevant receptor sites (inhibition of L-[3H]nicotine binding, brain membrane preparations); set-up: species or system rat (Sprague-Dawley)
Protocol: Rats (Sprague-Dawley) were maintained on a 12 hour light/dark cycle and were allowed free access to water and food supplied by Wayne Lab Blox, Madison, Wis. Animals used in the present studies weighed 200 to 250 g. Brain membrane preparations were obtained from brain tissue of either males or females.
Rats were killed by decapitation following anesthesia with 70% CO2. Brains were removed and placed on an ice-cold platform. […] The resulting homogenate was centrifuged at 18,000×g for 20 min. and the resulting pellet was resuspended in 20 volumes of water. After 60 min. incubation at 4° C., a new pellet was collected by centrifugation at 18,000×g for 20 min. After resuspension in 10 volumes of buffer, a new final pellet was again collected by centrifugation at 18,000×g for 20 min. Prior to each centrifugation step, the suspension was incubated at 37 ° C. for 5 min. to promote hydrolysis of endogenous acetylcholine. The final pellet was overlayered with buffer and stored at -70 ° C. On the day of the assay, that pellet was thawed, resuspended in buffer and centrifuged at 18,000×g for 20 min. The pellet obtained was resuspended in buffer to a final concentration of approximately 5 mg protein/mi. […]

[2] = in words; literature; cited from earlier work
[3] = tested on: IL-2; memory; neurotransmitter release in the CNS; conditions: in words; literature; cited from earlier work
[4] = in words; some patients; cited from earlier work
[5] = in words; literature; cited from earlier work; remark: listed apart in the source

T1 sequence (P02708 21-457): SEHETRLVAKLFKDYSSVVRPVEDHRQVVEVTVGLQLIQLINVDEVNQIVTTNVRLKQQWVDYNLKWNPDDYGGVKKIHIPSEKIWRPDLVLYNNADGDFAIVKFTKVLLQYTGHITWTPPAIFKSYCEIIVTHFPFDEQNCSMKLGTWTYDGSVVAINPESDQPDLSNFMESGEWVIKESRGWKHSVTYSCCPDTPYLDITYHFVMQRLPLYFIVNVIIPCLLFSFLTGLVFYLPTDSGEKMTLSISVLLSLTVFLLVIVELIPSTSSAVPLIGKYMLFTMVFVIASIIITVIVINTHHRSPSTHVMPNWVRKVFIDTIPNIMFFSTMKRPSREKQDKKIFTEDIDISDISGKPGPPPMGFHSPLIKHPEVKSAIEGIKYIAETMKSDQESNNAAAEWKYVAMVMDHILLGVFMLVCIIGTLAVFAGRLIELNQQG
T1 sequence (Q07001 22-517): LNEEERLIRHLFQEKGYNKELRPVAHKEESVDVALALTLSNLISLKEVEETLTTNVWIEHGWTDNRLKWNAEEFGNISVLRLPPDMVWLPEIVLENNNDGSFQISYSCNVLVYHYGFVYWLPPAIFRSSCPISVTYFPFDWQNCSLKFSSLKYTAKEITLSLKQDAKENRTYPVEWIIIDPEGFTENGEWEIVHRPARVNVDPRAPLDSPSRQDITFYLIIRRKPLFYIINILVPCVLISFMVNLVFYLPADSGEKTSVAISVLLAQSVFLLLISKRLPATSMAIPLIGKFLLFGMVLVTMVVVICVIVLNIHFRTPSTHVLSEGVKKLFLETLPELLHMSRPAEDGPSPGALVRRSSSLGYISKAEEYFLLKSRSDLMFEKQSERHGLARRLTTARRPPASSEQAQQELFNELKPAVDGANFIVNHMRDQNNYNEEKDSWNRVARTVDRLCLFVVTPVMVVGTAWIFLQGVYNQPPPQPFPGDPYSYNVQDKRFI
T1 sequence (P07510 23-517): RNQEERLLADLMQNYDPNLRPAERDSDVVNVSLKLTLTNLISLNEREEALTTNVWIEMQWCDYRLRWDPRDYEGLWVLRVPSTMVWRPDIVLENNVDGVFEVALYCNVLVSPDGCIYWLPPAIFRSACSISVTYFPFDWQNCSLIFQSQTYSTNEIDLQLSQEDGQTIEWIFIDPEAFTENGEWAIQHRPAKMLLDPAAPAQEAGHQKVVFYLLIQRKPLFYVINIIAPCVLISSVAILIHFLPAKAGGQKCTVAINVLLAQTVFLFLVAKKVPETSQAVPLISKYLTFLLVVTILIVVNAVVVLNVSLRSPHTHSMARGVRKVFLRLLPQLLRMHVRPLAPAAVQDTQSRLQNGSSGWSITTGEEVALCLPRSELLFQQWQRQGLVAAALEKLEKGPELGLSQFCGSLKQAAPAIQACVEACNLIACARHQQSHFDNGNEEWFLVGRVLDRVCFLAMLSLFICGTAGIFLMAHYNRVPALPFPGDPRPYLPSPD
T1 sequence (P11230 24-501): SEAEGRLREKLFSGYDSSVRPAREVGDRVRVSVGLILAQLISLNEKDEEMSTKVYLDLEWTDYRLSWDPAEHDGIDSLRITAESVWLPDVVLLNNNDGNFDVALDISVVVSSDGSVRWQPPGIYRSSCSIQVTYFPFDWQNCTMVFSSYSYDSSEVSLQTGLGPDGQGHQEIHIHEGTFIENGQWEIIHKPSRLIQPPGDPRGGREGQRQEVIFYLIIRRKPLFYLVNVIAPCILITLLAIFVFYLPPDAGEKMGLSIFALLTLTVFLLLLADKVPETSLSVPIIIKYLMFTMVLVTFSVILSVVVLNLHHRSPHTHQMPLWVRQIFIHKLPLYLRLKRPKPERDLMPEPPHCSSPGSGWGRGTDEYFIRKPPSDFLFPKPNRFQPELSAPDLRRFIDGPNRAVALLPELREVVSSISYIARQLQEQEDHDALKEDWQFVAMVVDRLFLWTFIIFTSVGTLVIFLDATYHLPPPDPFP

## CNCC/C=C/c1cncnc1 [Sample No. 2, (E)-N-methyl-4-(5-pyrimidinyl)-3-butene-1-amine]
[1]
  Emax: 4%

## CNCCCCc1cccnc1 [Sample No. 7, N-methyl-(3-pyridinyl)-butane-1-amine]
[1]
  Emax: 0%

## CNCC/C=C/c1ccc(C)nc1 [Sample No. 6, (E)-N-methyl-4-[3-(6-methylpyridin)yl]-3-butene-1-amine]
[1]
  Emax: 2%

## CNCC/C=C/c1cccnc1 [Sample No. 8, (E)-metanicotine]
[1]; te671/rd cells
  Muscle Effect (% nicotine): 15 % nicotine

## CNCCC#Cc1cccnc1 [Sample No. 4, N-Methyl-4-(3-pyridinyl)-3-butyne-1-amine]
Nicotinic receptors
  pKi: 7.24
[1]
  Emax: 7%

## COc1cncc(/C=C/CCN)c1 [Sample No. 3, (E)-4-[3-(5-methoxypyridin)yl]-3-butene-1-amine monofumarate]
[1]
  Emax: 0%

## CN1CCCC1c1cccnc1 (centres unmarked) [nicotine]
[2]
  rectal blood flow: Positive effects
[3]
  effects upon memory: positive effects upon memory
  neurotransmitter release in the CNS: induce neurotransmitter release in the CNS
  production of IL-2: inhibit the production of IL-2

## Nc1ccc(O)c(C(=O)O)c1 [mesalamine]
[4]
  effectiveness in treatment of acute UC: effective to some degree in some patients

## CN1CCC[C@H]1c1cccnc1 [C-1, (S)-(-)-nicotine]
[5]
  treatment of various CNS disorders: positive effect towards the treatment of various CNS disorders

## O=C(O)c1cc(/N=N/c2ccc(S(=O)(=O)Nc3ccccn3)cc2)ccc1O [sulfasalazine]
[4]
  effectiveness in treatment of acute UC: effective to some degree in some patients

— patent publication US5604231A, “Pharmaceutical compositions for prevention and treatment of ulcerative colitis” (priority 1995, dated 1997)
